Test results from patent US12012412B2, “Solid forms of pyrazolo[3,4-d]pyrimidine compounds” (Pfizer Inc., priority 2021, dated 2024).
In brackets after ≈: the same amount, converted by molar mass.

Assays:
Assay type in all cases: physicochemical
[1] = True density of Solid Form A
[2] = Gravimetric analysis (TGA/EGA) of Solid Form A; details: heated at 10° C./minute
Description: 10.9587 mg of Solid Form A was placed in a platinum crucible. This was analysed on a TA Instruments Discovery ThermoGravimetric Analyser, using a method that heated the sample from 25° C. to 300° C. at 10° C./minute with a nitrogen purge gas; alternatively, approximately 5-10 mg of material was weighed into an open aluminum pan and loaded into a simultaneous thermogravimetric/differential thermal analyzer (TG/DTA) and held at room temperature. The sample was then heated at a rate of 10° C./min from 20° C. to 400° C. during which time the change in sample weight was recorded along with any differential thermal events (DTA). Nitrogen was used as the purge gas, at a flow rate of 300 cm^3/min.

[3] = Water sorption (dynamic vapor sorption) of Solid Form A; details: 25° C.
Description: Solid Form A is non-hygroscopic, absorbing less than 0.05% water at 90% RH, 25° C. See FIG. 7 for the isotherm plot.

[4] = Aqueous solubility of Solid Form A in biologically relevant pH conditions at 25° C.; details: thermodynamic from solid
[5] = Solubility of Solid Form A and amorphous Compound X in various solvents at room temperature
[6] = Organic solubility: gravimetric (TGA) solubility at 25° C.
[7] = Particle size of batches of Solid Form A
Source text: Primary particles from below 100 μm to around 500 μm in size, with soft agglomerates up to several millimeters, were observed. The D[4,3] of this material was 195 μm. This material was subsequently milled, to give far fewer large particles and an overall much smaller average primary particle size, giving a D[4,3] of 49.5 μm. See Table 8 for a comparison of particle size properties of various batches.

[8] = Chemical and physical stability of Solid Form A (real-time and accelerated storage); details: for Time through which chemically and physically stable: unmilled, bulk packaging
[9] = Physical stability of Solid Form A to milling
Description: Samples of Solid Form A were milled to reduce particle size.
Milled samples of Solid Form A were remilled, and exposed at 40° C./75% RH.

[10] = milled samples remilled, exposed at 40° C./75% RH

- True Density (crystal structure) ([1]; from crystal structure): 1.279 Mg/m^3
- True Density (measured) ([1]; measured): 1.29 Mg/m^3
- Water Content, Desorption ([3]; 0 % RH): 0 % w/w
- Water Content, Sorption ([3]; 0 % RH): 0 % w/w
- Water Content, Desorption ([3]; 10 % RH): 0.01 % w/w
- Water Content, Sorption ([3]; 10 % RH): 0.01 % w/w
- Water Content, Desorption ([3]; 20 % RH): 0.01 % w/w
- Water Content, Sorption ([3]; 20 % RH): 0.01 % w/w
- Hygroscopicity [3]: non-hygroscopic
- Water Content, Desorption ([3]; 30 % RH): 0.01 % w/w
- Water Content, Sorption ([3]; 30 % RH): 0.01 % w/w
- Water Content, Desorption ([3]; 40 % RH): 0.02 % w/w
- Water Content, Sorption ([3]; 40 % RH): 0.02 % w/w
- Water Content, Desorption ([3]; 50 % RH): 0.02 % w/w
- Water Content, Sorption ([3]; 50 % RH): 0.02 % w/w
- Water Content, Desorption ([3]; 60 % RH): 0.02 % w/w
- Water Content, Sorption ([3]; 60 % RH): 0.02 % w/w
- Water Content, Desorption ([3]; 70 % RH): 0.03 % w/w
- Water Content, Sorption ([3]; 70 % RH): 0.03 % w/w
- Water Content, Desorption ([3]; 80 % RH): 0.03 % w/w
- Water Content, Sorption ([3]; 80 % RH): 0.03 % w/w
- Water absorbed ([3]; 90% RH): less than 0.05%
- solubility ([4]; aqueous buffer, 100 mM Citrate buffer, pH 4.5, 25° C.): > 55.9 mg/mL
- solubility ([4]; aqueous buffer, 100 mM Citrate buffer, pH 6.0, 25° C.): > 52.2 mg/mL
- solubility ([4]; aqueous buffer, 100 mM Phosphate buffer, pH 6.5, 25° C.): > 53.3 mg/mL
- solubility ([4]; aqueous buffer, 100 mM Succinate buffer, pH 4.0, 25° C.): > 58.6 mg/mL
- solubility ([4]; aqueous buffer, 100 mM Succinate buffer, pH 5.5, 25° C.): > 52.8 mg/mL
- solubility ([4]; aqueous buffer, Phosphate buffered saline, pH 7.0, 25° C.): 42.1 mg/mL (≈ 106 mM)
- solubility ([4]; aqueous buffer, Phosphate buffered saline, pH 7.4, 25° C.): 27.6 mg/mL (≈ 69.8 mM)
- solubility ([4]; simulated gastric fluid, 0.01M HCl, pH 1.7, 25° C.): > 56.6 mg/mL
- Solubility (mg/ml) ([5]; 1,2-Xylene): >65.4 mg/mL
- Solubility (mmol) ([5]; 1,2-Xylene): >165 mmol
- Solubility (mg/ml) ([5]; Acetone): 49.4 mg/mL (≈ 125 mM)
- Solubility (mmol) ([5]; Acetone): 125 mmol
- Solubility (mmol) ([5]; Chloroform): >145 mmol
- Solubility (mmol) ([5]; Dioxane): >117 mmol
- Solubility (mg/ml) ([5]; EtOAc): 44.7 mg/mL (≈ 113 mM)
- Solubility (mmol) ([5]; EtOAc): 113 mmol
- Solubility (mmol) ([5]; EtOH): 160 mmol
- Solubility (mmol) ([5]; Glyme (1,2-Dimethoxyethane)): >159 mmol
- Solubility (mmol) ([5]; H2O (Water)): 89 mmol
- Solubility (mmol) ([5]; H2O-EtOH (Water/EtOH)): >75 mmol
- Solubility (mg/ml) ([5]; H2O-MeCN (Water/MeCN)): >27 mg/mL
- Solubility (mmol) ([5]; H2O-MeCN (Water/MeCN)): >68 mmol
- Solubility (mmol) ([5]; H2O-MeOH (Water/MeOH)): >87 mmol
- Solubility (mg/ml) ([5]; H2O-acetone (Water/acetone)): >33.3 mg/mL
- Solubility (mmol) ([5]; H2O-acetone (Water/acetone)): >84 mmol
- Solubility (mmol) ([5]; Heptane): 1 mmol
- Solubility (mg/ml) ([5]; IPA): 29.2 mg/mL (≈ 73.8 mM)
- Solubility (mmol) ([5]; IPA): 74 mmol
- Solubility (mmol) ([5]; MTBE): 17 mmol
- solubility ([5]; MTBE, organic solvent or mixture): 6.7 mg/mL (≈ 16.9 mM)
- Solubility (mg/ml) ([5]; MeCN): 47.8 mg/mL (≈ 121 mM)
- Solubility (mmol) ([5]; MeCN): 121 mmol
- Solubility (mmol) ([5]; MeOH): >181 mmol
- Solubility (mmol) ([5]; Methoxy ethanol): >188 mmol
- Solubility (mmol) ([5]; Nitromethane): >189 mmol
- Solubility (mmol) ([5]; THF): >147 mmol
- solubility ([5]; THF, organic solvent or mixture): > 58 mg/mL
- Solubility (mg/ml) ([5]; Toluene): 52.2 mg/mL (≈ 132 mM)
- Solubility (mmol) ([5]; Toluene): 132 mmol
- solubility ([5]; chloroform, organic solvent or mixture): > 57.5 mg/mL
- solubility ([5]; dioxane, organic solvent or mixture): > 46.3 mg/mL
- solubility ([5]; ethanol (EtOH), organic solvent or mixture, EtOH): 63.4 mg/mL (≈ 160 mM)
- solubility ([5]; glyme (1,2-dimethoxyethane), organic solvent or mixture): > 63 mg/mL
- solubility ([5]; heptane, organic solvent or mixture): 0.6 mg/mL (≈ 1.52 mM)
- solubility ([5]; methanol (MeOH), organic solvent or mixture, MeOH): > 71.4 mg/mL
- solubility ([5]; methoxy ethanol, organic solvent or mixture): > 74.5 mg/mL
- solubility ([5]; nitromethane, organic solvent or mixture): > 74.9 mg/mL
- solubility ([5]; water, H2O (Water)): 35.3 mg/mL (≈ 89.3 mM)
- solubility ([5]; water/EtOH, aqueous with cosolvent or surfactant or cyclodextrin, H2O-EtOH (Water/EtOH)): > 29.8 mg/mL
- solubility ([5]; water/MeOH, aqueous with cosolvent or surfactant or cyclodextrin, H2O-MeOH (Water/MeOH)): > 34.2 mg/mL
- solubility ([6]; Acetone): 125 mmol
- solubility ([6]; EtOAc): 113 mmol
- solubility ([6]; EtOH): 160 mmol
- solubility ([6]; H2O): 89 mmol
- solubility ([6]; Heptane): 1 mmol
- solubility ([6]; IPA): 74 mmol
- solubility ([6]; MTBE): 17 mmol
- solubility ([6]; MeCN): 121 mmol
- solubility ([6]; Toluene): 132 mmol
- solubility ([6]; ethanol (EtOH), organic solvent or mixture, thermodynamic from solid, EtOH, read-out: Solubility): 63.4 mg/mL (≈ 160 mM)
- solubility ([6]; ethyl acetate (EtOAc), organic solvent or mixture, thermodynamic from solid, EtOAc, read-out: Solubility): 44.7 mg/mL (≈ 113 mM)
- solubility ([6]; organic solvent or mixture, thermodynamic from solid, Acetone, read-out: Solubility): 49.4 mg/mL (≈ 125 mM)
- solubility ([6]; organic solvent or mixture, thermodynamic from solid, Heptane, read-out: Solubility): 0.6 mg/mL (≈ 1.52 mM)
- solubility ([6]; organic solvent or mixture, thermodynamic from solid, IPA, read-out: Solubility): 29.2 mg/mL (≈ 73.8 mM)
- solubility ([6]; organic solvent or mixture, thermodynamic from solid, MTBE, read-out: Solubility): 6.7 mg/mL (≈ 16.9 mM)
- solubility ([6]; organic solvent or mixture, thermodynamic from solid, MeCN, read-out: Solubility): 47.8 mg/mL (≈ 121 mM)
- solubility ([6]; organic solvent or mixture, thermodynamic from solid, Toluene, read-out: Solubility): 52.2 mg/mL (≈ 132 mM)
- solubility ([6]; water, thermodynamic from solid, H2O, read-out: Solubility): 35.3 mg/mL (≈ 89.3 mM)
- Particle size D[4, 3] ([7]; after milling): 49.5 μm
- Particle size D[4, 3] ([7]; unmilled material): 195 μm
- Stability on storage ([8]; milled, 70° C./75% RH, 1 week): no change in stability
- Time through which chemically and physically stable ([8]; 40° C./75% RH accelerated conditions): ≥ 6 months
- Time through which chemically and physically stable ([8]; room temperature conditions (63 months @ 15-30° C. and 21 months at 25° C./60% RH)): ≥ 84 months
- Change in crystallinity (XRPD) [9, 10]: no sign of a decrease in crystallinity
- Form change (XRPD) [9, 10]: no sign of form change
- Impact of milling upon polymorphic form ([9]; milled to reduce particle size): No impact upon polymorphic form
SMILES: C[C@@H]1CN(Cc2ncccn2)C[C@H]1c1nc2c(cnn2C2CCOCC2)c(=O)[nH]1 [Solid Form A, 6-((3S,4S)-4-methyl-1-(pyrimidin-2-ylmethyl)pyrrolidin-3-yl)-1-(tetrahydro-2H-pyran-4-yl)-1,5-dihydro-4H-pyrazolo[3,4-d]pyrimidin-4-one]
- Temperature until which no significant degradation is seen (TGA) [2]: degradation until approximately 240 °C See FIG. 3.
